# Assay results from US10932454B2, “LDL receptor gene knockout, genetically-engineered hamster” (HEBEI INVIVO BIOTECH INC, priority 2016, dated 2021).
# Entries after “also recorded” stand apart in the source; their conditions may differ.
# Experiments:
# [1] = test system: wild type control hamsters; assay: High-fat diet feeding with intragastric ezetimibe in wild type hamsters; plasma lipids; type: in vivo, golden Syrian hamster; conditions: WT hamsters, high-fat diet plus 2 mg/kg ezetimibe intragastric daily for two weeks
# Procedure: The high-fat diet used in the study was a normal rodent diet containing 0.5% cholesterol and 10% lard. The dose of ezetimibe was 2 mg/kg body weight, administered by intragastric administration, and the control group was given tri-distilled water. Plasma was collected before high-fat diet feeding, after two weeks of high-fat diet feeding, before administration and after two weeks of administration, respectively. The hamsters were fasted for 12 hours at night, anesthetized by intraperitoneal injection of pentobarbital sodium, and about 1 ml of blood was collected from the posterior orbital vein, and heparin was used for anticoagulation. A plasma triglyceride assay kit and a total cholesterol assay kit (Biosino Bio-Technology and Science Inc.) were used to detect plasma triglyceride and total cholesterol levels. High-density lipoprotein cholesterol (HDL-C) was tested for cholesterol levels after removal of apoB-containing lipoproteins by polyethylene glycol precipitation. The lipid component of plasma lipoprotein was detected by using fast protein liquid chromatography (FPLC) instrument of Amersham Biocsciences, USA, and the plasma lipoprotein fraction was firstly separated by superose 6 HR10/30 column. […]
# [2] = test system: LDL-R gene deficient Δ194 bp heterozygous hamsters; assay: High-fat diet feeding with intragastric ezetimibe in LDL-R+/- hamsters; plasma lipids, lipoprotein FPLC, body weight; type: in vivo, golden Syrian hamster
# Procedure: The high-fat diet used in the study was a normal rodent diet containing 0.5% cholesterol and 10% lard. The dose of ezetimibe was 2 mg/kg body weight, administered by intragastric administration, and the control group was given tri-distilled water. Plasma was collected before high-fat diet feeding, after two weeks of high-fat diet feeding, before administration and after two weeks of administration, respectively. The hamsters were fasted for 12 hours at night, anesthetized by intraperitoneal injection of pentobarbital sodium, and about 1 ml of blood was collected from the posterior orbital vein, and heparin was used for anticoagulation. A plasma triglyceride assay kit and a total cholesterol assay kit (Biosino Bio-Technology and Science Inc.) were used to detect plasma triglyceride and total cholesterol levels. High-density lipoprotein cholesterol (HDL-C) was tested for cholesterol levels after removal of apoB-containing lipoproteins by polyethylene glycol precipitation. The lipid component of plasma lipoprotein was detected by using fast protein liquid chromatography (FPLC) instrument of Amersham Biocsciences, USA, and the plasma lipoprotein fraction was firstly separated by superose 6 HR10/30 column. 200 μl of plasma was loaded through a 0.22 μm syringe filter, and the separated components were automatically collected at a rate of 0.5 mL per minute, 500 μl per component, for a total of 35 components. The above cholesterol detection kit was applied to each component to detect the cholesterol content, and a plasma lipoprotein profile was prepared.
# [3] = 2 mg/kg intragastric daily, two weeks, high-fat diet
compound,measurement,setting,value
O=C1[C@H](CC[C@H](O)c2ccc(F)cc2)[C@@H](c2ccc(O)cc2)N1c1ccc(F)cc1 [ezetimibe],triglyceride level after administration,[1]; high-fat diet only 413 mg/dL,157 mg/dL
same,plasma cholesterol level after administration,[1]; high-fat diet only 513 mg/dL,111 mg/dL
same,effect on hyperlipidemia of LDL-R knockout hamsters,"[2]; 2 mg/kg intragastric daily, high-fat diet",significantly reverses hyperlipidemia; also recorded: significantly reversed hypelipidemia
same,HDL cholesterol in plasma (FPLC),[2]; [3],not significantly changed; also recorded: little effect on HDL
same,VLDL and LDL cholesterol in plasma (FPLC),[2]; [3],decrease of VLDL-C and LDL-C; also recorded: mainly decreased VLDL and LDL in plasma
same,"body weight, ezetimibe-administered group vs high-fat diet feeding group","[2]; 2 mg/kg intragastric daily, two weeks, high-fat diet, each group of hamsters (WT and LDL-R+/-)",no significant difference
same,plasma cholesterol change after administration (in words),"[2]; LDL-R heterozygous hamster on high-fat diet (0.5% cholesterol, 10% fat), ezetimibe 2 mg/kg",decreased to the level of the wild type hamster fed on common diet
same,triglyceride level after administration,"[2]; LDL-R+/- hamsters, high-fat diet plus 2 mg/kg ezetimibe intragastric daily for two weeks, high-fat diet only 658 mg/dL",225 mg/dL
same,plasma cholesterol level after administration,"[2]; LDL-R+/- hamsters, high-fat diet plus 2 mg/kg ezetimibe intragastric daily for two weeks, high-fat diet only 1864 mg/dL",157 mg/dL
